# Reference: PubChem BioAssay (NCI)
#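 At the GI50, growth is halved. TGI: concentration producing complete growth inhibition.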
# Assays:
# Assay in all cases: DTP human tumour cell line panel, 384-well format
# OVCAR-5 ovarian = tested on: OVCAR-5 ovarian
# SNB-75 CNS = tested on: SNB-75 CNS
# UACC-257 melanoma = tested on: UACC-257 melanoma
# T-47D breast = tested on: T-47D breast
# NCI-H522 lung = tested on: NCI-H522 lung
# NCI-H460 NSCLC = tested on: NCI-H460 NSCLC
# SW-620 colon = tested on: SW-620 colon
# TK-10 renal = tested on: TK-10 renal
# OVCAR-4 ovarian = tested on: OVCAR-4 ovarian
# SN12C renal = tested on: SN12C renal
# MALME-3M melanoma = tested on: MALME-3M melanoma
# DU-145 prostate = tested on: DU-145 prostate
# M14 melanoma = tested on: M14 melanoma
# OVCAR-3 ovarian = tested on: OVCAR-3 ovarian
# K-562 leukemia = tested on: K-562 leukemia
# CAKI-1 renal = tested on: CAKI-1 renal
# SF-539 CNS = tested on: SF-539 CNS
# SF-295 CNS = tested on: SF-295 CNS
# IGROV1 ovarian = tested on: IGROV1 ovarian
# U251 glioblastoma = tested on: U251 glioblastoma
# HCT-15 colon = tested on: HCT-15 colon
# CCRF-CEM leukemia = tested on: CCRF-CEM leukemia
# HOP-62 NSCLC = tested on: HOP-62 NSCLC
# A549 NSCLC = tested on: A549 NSCLC
# MCF7 breast = tested on: MCF7 breast
# RXF 393 renal = tested on: RXF 393 renal
# MDA-MB-231 breast = tested on: MDA-MB-231 breast
# HOP-92 NSCLC = tested on: HOP-92 NSCLC
# UACC-62 melanoma = tested on: UACC-62 melanoma
# KM12 colon = tested on: KM12 colon
# MOLT-4 leukemia = tested on: MOLT-4 leukemia
# SK-MEL-5 melanoma = tested on: SK-MEL-5 melanoma
# HCT-116 colon = tested on: HCT-116 colon
# SK-OV-3 ovarian = tested on: SK-OV-3 ovarian
# COLO 205 colon = tested on: COLO 205 colon
# MDA-MB-435 melanoma = tested on: MDA-MB-435 melanoma
# NCI-H322M lung = tested on: NCI-H322M lung
# UO-31 renal = tested on: UO-31 renal
# A498 renal = tested on: A498 renal
# NCI-H226 lung = tested on: NCI-H226 lung
# HCC-2998 colon = tested on: HCC-2998 colon
# PC-3 prostate = tested on: PC-3 prostate
# NCI/ADR-RES ovarian = tested on: NCI/ADR-RES ovarian
# BT-549 breast = tested on: BT-549 breast
# 786-0 renal = tested on: 786-0 renal
# HL-60(TB) leukemia = tested on: HL-60(TB) leukemia
# LOX IMVI melanoma = tested on: LOX IMVI melanoma
# NCI-H23 lung = tested on: NCI-H23 lung
# EKVX NSCLC = tested on: EKVX NSCLC
# SF-268 CNS = tested on: SF-268 CNS
# SNB-19 CNS = tested on: SNB-19 CNS
# OVCAR-8 ovarian = tested on: OVCAR-8 ovarian
# ACHN renal = tested on: ACHN renal
# MDA-MB-468 breast = tested on: MDA-MB-468 breast
# SK-MEL-28 melanoma = tested on: SK-MEL-28 melanoma
# HS 578T breast = tested on: HS 578T breast
# SK-MEL-2 melanoma = tested on: SK-MEL-2 melanoma
# HT29 colon = tested on: HT29 colon
# RPMI-8226 leukemia = tested on: RPMI-8226 leukemia
structure (smiles),measurement,setting,value
CC(C)NC[C@@H](C(=O)N1CCN(c2ncnc3c2[C@H](C)C[C@H]3O)CC1)c1ccc(Cl)cc1,GI50,OVCAR-5 ovarian,18.4 µM
same,TGI,OVCAR-5 ovarian,> 100 µM
same,GI50,SNB-75 CNS,0.676 µM
same,TGI,SNB-75 CNS,15.3 µM
same,GI50,UACC-257 melanoma,14 µM
same,TGI,UACC-257 melanoma,27.1 µM
same,GI50,T-47D breast,0.119 µM
same,TGI,T-47D breast,0.857 µM
same,GI50,NCI-H522 lung,17 µM
same,TGI,NCI-H522 lung,49.3 µM
same,GI50,NCI-H460 NSCLC,1.31 µM
same,TGI,NCI-H460 NSCLC,> 100 µM
same,GI50,SW-620 colon,49.9 µM
same,TGI,SW-620 colon,> 100 µM
same,GI50,TK-10 renal,5.49 µM
same,TGI,TK-10 renal,36.9 µM
same,GI50,OVCAR-4 ovarian,76.8 µM
same,TGI,OVCAR-4 ovarian,> 100 µM
same,GI50,SN12C renal,23.8 µM
same,TGI,SN12C renal,> 100 µM
same,GI50,MALME-3M melanoma,7.94 µM
same,TGI,MALME-3M melanoma,21.6 µM
same,GI50,DU-145 prostate,25.8 µM
same,TGI,DU-145 prostate,> 100 µM
same,GI50,M14 melanoma,14.4 µM
same,TGI,M14 melanoma,34 µM
same,GI50,OVCAR-3 ovarian,10.5 µM
same,TGI,OVCAR-3 ovarian,64.5 µM
same,GI50,K-562 leukemia,25.4 µM
same,TGI,K-562 leukemia,> 100 µM
same,GI50,CAKI-1 renal,11.7 µM
same,TGI,CAKI-1 renal,75.5 µM
same,GI50,SF-539 CNS,0.587 µM
same,TGI,SF-539 CNS,22.5 µM
same,GI50,SF-295 CNS,2.19 µM
same,TGI,SF-295 CNS,32.7 µM
same,GI50,IGROV1 ovarian,0.235 µM
same,TGI,IGROV1 ovarian,2.69 µM
same,GI50,U251 glioblastoma,10.2 µM
same,TGI,U251 glioblastoma,> 100 µM
same,GI50,HCT-15 colon,26.2 µM
same,TGI,HCT-15 colon,> 100 µM
same,GI50,CCRF-CEM leukemia,0.854 µM
same,TGI,CCRF-CEM leukemia,12 µM
same,GI50,HOP-62 NSCLC,34.1 µM
same,TGI,HOP-62 NSCLC,> 100 µM
same,GI50,A549 NSCLC,18.2 µM
same,TGI,A549 NSCLC,> 100 µM
same,GI50,MCF7 breast,0.919 µM
same,TGI,MCF7 breast,15.5 µM
same,GI50,RXF 393 renal,0.3 µM
same,TGI,RXF 393 renal,4.41 µM
same,GI50,MDA-MB-231 breast,44.9 µM
same,TGI,MDA-MB-231 breast,> 100 µM
same,GI50,HOP-92 NSCLC,11.7 µM
same,TGI,HOP-92 NSCLC,46.1 µM
same,GI50,UACC-62 melanoma,10.9 µM
same,TGI,UACC-62 melanoma,30.4 µM
same,GI50,KM12 colon,1.45 µM
same,TGI,KM12 colon,18.8 µM
same,GI50,MOLT-4 leukemia,0.259 µM
same,TGI,MOLT-4 leukemia,1.77 µM
same,GI50,SK-MEL-5 melanoma,12 µM
same,TGI,SK-MEL-5 melanoma,25.2 µM
same,GI50,HCT-116 colon,18.2 µM
same,TGI,HCT-116 colon,96.8 µM
same,GI50,SK-OV-3 ovarian,0.912 µM
same,TGI,SK-OV-3 ovarian,23.6 µM
same,GI50,COLO 205 colon,4.88 µM
same,TGI,COLO 205 colon,24.5 µM
same,GI50,MDA-MB-435 melanoma,23.9 µM
same,TGI,MDA-MB-435 melanoma,> 100 µM
same,GI50,NCI-H322M lung,18.4 µM
same,TGI,NCI-H322M lung,> 100 µM
same,GI50,UO-31 renal,35 µM
same,TGI,UO-31 renal,> 100 µM
same,GI50,A498 renal,0.589 µM
same,TGI,A498 renal,11.3 µM
same,GI50,NCI-H226 lung,21.2 µM
same,TGI,NCI-H226 lung,> 100 µM
same,GI50,HCC-2998 colon,3.41 µM
same,TGI,HCC-2998 colon,24.1 µM
same,GI50,PC-3 prostate,1.07 µM
same,TGI,PC-3 prostate,35.4 µM
same,GI50,NCI/ADR-RES ovarian,> 100 µM
same,TGI,NCI/ADR-RES ovarian,> 100 µM
same,GI50,BT-549 breast,0.636 µM
same,TGI,BT-549 breast,11.8 µM
same,GI50,786-0 renal,1.49 µM
same,TGI,786-0 renal,21 µM
same,GI50,HL-60(TB) leukemia,17.3 µM
same,TGI,HL-60(TB) leukemia,31.2 µM
same,GI50,LOX IMVI melanoma,34.5 µM
same,TGI,LOX IMVI melanoma,> 100 µM
same,GI50,NCI-H23 lung,16.2 µM
same,TGI,NCI-H23 lung,57.1 µM
same,GI50,EKVX NSCLC,10.6 µM
same,TGI,EKVX NSCLC,52.4 µM
same,GI50,SF-268 CNS,29.6 µM
same,TGI,SF-268 CNS,> 100 µM
same,GI50,SNB-19 CNS,7.47 µM
same,TGI,SNB-19 CNS,> 100 µM
same,GI50,OVCAR-8 ovarian,45.9 µM
same,TGI,OVCAR-8 ovarian,> 100 µM
same,GI50,ACHN renal,25.1 µM
same,TGI,ACHN renal,> 100 µM
same,GI50,MDA-MB-468 breast,0.494 µM
same,TGI,MDA-MB-468 breast,4.16 µM
same,GI50,SK-MEL-28 melanoma,11.4 µM
same,TGI,SK-MEL-28 melanoma,41.7 µM
same,GI50,HS 578T breast,0.771 µM
same,TGI,HS 578T breast,14.6 µM
same,GI50,SK-MEL-2 melanoma,11.2 µM
same,TGI,SK-MEL-2 melanoma,24.5 µM
same,GI50,HT29 colon,15.1 µM
same,TGI,HT29 colon,52.5 µM
same,GI50,RPMI-8226 leukemia,10.5 µM
same,TGI,RPMI-8226 leukemia,23.9 µM
